Assay results as given in ChEMBL document CHEMBL2401671, “Nucleic acid changes during photodynamic inactivation of bacteria by cationic porphyrins” (Bioorg Med Chem, 2013).
Active and inactive are the calls of the source. No cut-off for these calls is given here.

How the values were obtained:
Escherichia coli [1] = test: Photodynamic inactivation of Escherichia coli ATCC 25922 assessed as reduction in intracellular double stranded DNA concentration at 5 uM preincubated for 10 mins followed by visible light irradiation for 60 mins by fluorimetric analysis relative to control; type: functional; parameters: scale not given: the % may be the effect or the level left
Staphylococcus warneri [2] = test: Drug uptake in Staphylococcus warneri at 0.5 uM after 10 mins by spectrofluorimetric analysis; type: ADME, organism-based; conditions: in vivo
Escherichia coli [3] = test: Photodynamic inactivation of Escherichia coli ATCC 25922 assessed as reduction in intracellular double stranded DNA concentration at 5 uM preincubated for 10 mins followed by visible light irradiation for 15 mins by fluorimetric analysis relative to control; type: functional; parameters: scale not given: the % may be the effect or the level left
Escherichia coli [4] = test: Photodynamic inactivation of Escherichia coli ATCC 25922 assessed as reduction in cell survival at 5 uM preincubated for 10 mins followed by visible light irradiation for 270 mins; type: functional
Staphylococcus warneri [5] = test: Photodynamic inactivation of Staphylococcus warneri assessed as reduction in intracellular double stranded DNA concentration at 0.5 uM preincubated for 10 mins followed by visible light irradiation for 10 mins by fluorimetric analysis relative to control; type: functional; parameters: scale not given: the % may be the effect or the level left
Staphylococcus warneri [6] = test: Photodynamic inactivation of Staphylococcus warneri assessed as reduction in cell survival at 0.5 uM preincubated for 10 mins followed by visible light irradiation for 15 mins; type: functional
Staphylococcus warneri [7] = test: Photodynamic inactivation of Staphylococcus warneri assessed as reduction in nucleic acid level at 0.5 uM preincubated for 10 mins followed by visible light irradiation for 20 to 40 mins by agarose gel electrophoresis; type: functional, organism-based
Staphylococcus warneri [8] = test: Photodynamic inactivation of Staphylococcus warneri assessed as reduction in intracellular double stranded DNA concentration at 0.5 uM preincubated for 10 mins followed by visible light irradiation for 30 mins by fluorimetric analysis relative to control; type: functional; parameters: scale not given: the % may be the effect or the level left
Escherichia coli [9] = test: Photodynamic inactivation of Escherichia coli ATCC 25922 assessed as reduction in cell survival at 5 uM preincubated for 10 mins followed by visible light irradiation at 8 J cm'-2 light dose; type: functional
Escherichia coli [10] = test: Photodynamic inactivation of Escherichia coli ATCC 25922 assessed as reduction in degraded DNA and mRNA level at 5 uM preincubated for 10 mins followed by visible light irradiation for 30 mins by agarose gel electrophoresis; type: functional, organism-based
Staphylococcus warneri [11] = test: Photodynamic inactivation of Staphylococcus warneri assessed as reduction in intracellular double stranded DNA concentration at 0.5 uM preincubated for 10 mins followed by visible light irradiation for 20 mins by fluorimetric analysis relative to control; type: functional; parameters: scale not given: the % may be the effect or the level left
Escherichia coli [12] = test: Photodynamic inactivation of Escherichia coli ATCC 25922 assessed as reduction in intracellular double stranded DNA concentration at 5 uM preincubated for 10 mins followed by visible light irradiation for 90 mins by fluorimetric analysis relative to control; type: functional; parameters: scale not given: the % may be the effect or the level left
Escherichia coli [13] = test: Photodynamic inactivation of Escherichia coli ATCC 25922 assessed as reduction in intracellular double stranded DNA concentration at 5 uM preincubated for 10 mins followed by visible light irradiation for 270 mins by fluorimetric analysis relative to control; type: functional; parameters: scale not given: the % may be the effect or the level left
Escherichia coli [14] = test: Photodynamic inactivation of Escherichia coli ATCC 25922 assessed as reduction in cell survival at 5 uM preincubated for 10 mins followed by visible light irradiation for 90 mins; type: functional
Escherichia coli [15] = test: Photodynamic inactivation of Escherichia coli ATCC 25922 assessed as reduction in genomic DNA level at 5 uM preincubated for 10 mins followed by visible light irradiation for 15 mins by agarose gel electrophoresis; type: functional, organism-based
Staphylococcus warneri [16] = test: Photodynamic inactivation of Staphylococcus warneri assessed as reduction in genomic DNA level at 0.5 uM preincubated for 10 mins followed by visible light irradiation for 5 to 15 mins by agarose gel electrophoresis; type: functional, organism-based
Staphylococcus warneri [17] = test: Photodynamic inactivation of Staphylococcus warneri assessed as reduction in cell survival at 0.5 uM preincubated for 10 mins followed by visible light irradiation for 30 mins; type: functional
Escherichia coli [18] = test: Photodynamic inactivation of Escherichia coli ATCC 25922 assessed as reduction in intracellular double stranded DNA concentration at 5 uM preincubated for 10 mins followed by visible light irradiation for 180 mins by fluorimetric analysis relative to control; type: functional; parameters: scale not given: the % may be the effect or the level left
Staphylococcus warneri [19] = test: Photodynamic inactivation of Staphylococcus warneri assessed as reduction in cell survival at 0.5 uM preincubated for 10 mins followed by visible light irradiation for 20 mins; type: functional
Escherichia coli [20] = test: Photodynamic inactivation of Escherichia coli ATCC 25922 assessed as reduction in cell survival at 5 uM preincubated for 10 mins followed by visible light irradiation for 15 mins; type: functional
Staphylococcus warneri [21] = test: Photodynamic inactivation of Staphylococcus warneri assessed as reduction in intracellular double stranded DNA concentration at 0.5 uM preincubated for 10 mins followed by visible light irradiation for 5 mins by fluorimetric analysis relative to control; type: functional; parameters: scale not given: the % may be the effect or the level left
Staphylococcus warneri [22] = test: Photodynamic inactivation of Staphylococcus warneri assessed as reduction in cell survival at 0.5 uM preincubated for 10 mins followed by visible light irradiation for 10 mins; type: functional
Staphylococcus warneri [23] = test: Drug uptake in Staphylococcus warneri at 0.5 uM incubated for 10 mins followed by compound washout by spectrofluorimetric analysis relative to control; type: ADME, organism-based; conditions: in vivo
Staphylococcus warneri [24] = test: Photodynamic inactivation of Staphylococcus warneri assessed as reduction in intracellular double stranded DNA concentration at 0.5 uM preincubated for 10 mins followed by visible light irradiation for 15 mins by fluorimetric analysis relative to control; type: functional; parameters: scale not given: the % may be the effect or the level left
Escherichia coli [25] = test: Photodynamic inactivation of Escherichia coli ATCC 25922 assessed as reduction in cell survival at 5 uM preincubated for 10 mins followed by visible light irradiation for 30 mins; type: functional
Staphylococcus warneri [26] = test: Photodynamic inactivation of Staphylococcus warneri assessed as reduction in cell survival at 0.5 uM preincubated for 10 mins followed by visible light irradiation for 5 mins; type: functional
Staphylococcus warneri [27] = test: Photodynamic inactivation of Staphylococcus warneri assessed as reduction in intracellular double stranded DNA concentration at 0.5 uM preincubated for 10 mins followed by visible light irradiation by fluorimetric analysis; type: functional, organism-based; conditions: TDE = time-dependent effect
Staphylococcus warneri [28] = test: Photodynamic inactivation of Staphylococcus warneri assessed as reduction in intracellular double stranded DNA concentration at 0.5 uM preincubated for 10 mins followed by visible light irradiation for 40 mins by fluorimetric analysis relative to control; type: functional; parameters: scale not given: the % may be the effect or the level left
Escherichia coli [29] = test: Photodynamic inactivation of Escherichia coli ATCC 25922 assessed as reduction in cell survival at 5 uM preincubated for 10 mins followed by visible light irradiation for 60 mins; type: functional
Escherichia coli [30] = test: Photodynamic inactivation of Escherichia coli ATCC 25922 assessed as reduction in cell survival at 5 uM preincubated for 10 mins followed by visible light irradiation for 180 mins; type: functional
Escherichia coli [31] = test: Photodynamic inactivation of Escherichia coli ATCC 25922 assessed as reduction in intracellular double stranded DNA concentration at 5 uM preincubated for 10 mins followed by visible light irradiation by fluorimetric analysis; type: functional, organism-based; conditions: TDE = time-dependent effect
Escherichia coli [32] = test: Photodynamic inactivation of Escherichia coli ATCC 25922 assessed as reduction in intracellular double stranded DNA concentration at 5 uM preincubated for 10 mins followed by visible light irradiation for 30 mins by fluorimetric analysis relative to control; type: functional; parameters: scale not given: the % may be the effect or the level left
Escherichia coli [33] = test: Photodynamic inactivation of Escherichia coli ATCC 25922 assessed as reduction in rRNA level at 5 uM preincubated for 10 mins followed by visible light irradiation for 15 mins by agarose gel electrophoresis; type: functional, organism-based
Escherichia coli [34] = test: Photodynamic inactivation of Escherichia coli ATCC 25922 assessed as reduction in nucleic acid level at 5 uM preincubated for 10 mins followed by visible light irradiation for 60 mins by agarose gel electrophoresis; type: functional, organism-based
Staphylococcus warneri [35] = test: Photodynamic inactivation of Staphylococcus warneri assessed as reduction in cell survival at 0.5 uM preincubated for 10 mins followed by visible light irradiation for 40 mins; type: functional
Escherichia coli [36] = test: Drug uptake in Escherichia coli ATCC 25922 at 5 uM after 10 mins by spectrofluorimetric analysis; type: ADME, organism-based; conditions: in vivo
Escherichia coli [37] = test: Drug uptake in Escherichia coli ATCC 25922 at 5 uM incubated for 10 mins followed by compound washout by spectrofluorimetric analysis relative to control; type: ADME, organism-based; conditions: in vivo
Staphylococcus warneri [38] = test: Photodynamic inactivation of Staphylococcus warneri assessed as reduction in cell survival at 0.5 uM preincubated for 10 mins followed by visible light irradiation at 5 J cm'-2 light dose; type: functional
Escherichia coli [39] = test: Photodynamic inactivation of Escherichia coli ATCC 25922 assessed as reduction in 16S rRNA level at 5 uM preincubated for 10 mins followed by visible light irradiation for 30 mins by agarose gel electrophoresis; type: functional, organism-based
Escherichia coli [40] = test: Photodynamic inactivation of Escherichia coli ATCC 25922 assessed as reduction in 23S rRNA level at 5 uM preincubated for 10 mins followed by visible light irradiation for 30 mins by agarose gel electrophoresis; type: functional, organism-based
Staphylococcus warneri [41] = test: Photodynamic inactivation of Staphylococcus warneri assessed as reduction in DNA level at 0.5 uM preincubated for 10 mins followed by visible light irradiation for 40 mins by agarose gel electrophoresis; type: functional, organism-based
Staphylococcus warneri [42] = test: Photodynamic inactivation of Staphylococcus warneri assessed as reduction in DNA level at 0.5 uM preincubated for 10 mins followed by visible light irradiation for 5 to 30 mins by agarose gel electrophoresis; type: functional, organism-based

Row | Structure (SMILES) | Activity (Escherichia coli [1]) | Drug uptake (Staphylococcus warneri [2]) | Activity (Escherichia coli [3]) | log10CFU/ml (Escherichia coli [4]) | Activity (Staphylococcus warneri [5]) | log10CFU/ml (Staphylococcus warneri [6]) | Activity (Staphylococcus warneri [8]) | Activity (Escherichia coli [9]) | Activity (Staphylococcus warneri [11]) | Activity (Escherichia coli [12]) | Activity (Escherichia coli [13]) | log10CFU/ml (Escherichia coli [14]) | Activity (Escherichia coli [15]) | log10CFU/ml (Staphylococcus warneri [17]) | Activity (Escherichia coli [18]) | log10CFU/ml (Staphylococcus warneri [19]) | log10CFU/ml (Escherichia coli [20]) | Activity (Staphylococcus warneri [21]) | log10CFU/ml (Staphylococcus warneri [22]) | Drug uptake (Staphylococcus warneri [23]) | other results
1 | C[n+]1ccc(-c2c3nc(c(-c4cc[n+](C)cc4)c4ccc([nH]4)c(-c4c(F)c(F)c(F)c(F)c4F)c4nc(c(-c5cc[n+](C)cc5)c5ccc2[nH]5)C=C4)C=C3)cc1.[I-].[I-].[I-] | 98.4% | Active | 23.1% | 7.7 | 69.9% | 5.6 | 91.9% | 99.9% | 82.8% | 98.3% | 99.6% | 5.8 | Active | 7.2 | 99.1% | 6.9 | 3.1 | 66.2% | 5.3 | 74% | Activity (Staphylococcus warneri [7]): Active; Activity (Escherichia coli [10]): Active; Activity (Staphylococcus warneri [16]): Active; Activity (Staphylococcus warneri [24]): 78%; log10CFU/ml (Escherichia coli [25]): 5.2; log10CFU/ml (Staphylococcus warneri [26]): 4.8; Activity (Staphylococcus warneri [27]): tde; Activity (Staphylococcus warneri [28]): 92.2%; log10CFU/ml (Escherichia coli [29]): 5.4; log10CFU/ml (Escherichia coli [30]): 7.2; Activity (Escherichia coli [31]): tde; Activity (Escherichia coli [32]): 55.1%; Activity (Escherichia coli [33]): Active; Activity (Escherichia coli [34]): Active; log10CFU/ml (Staphylococcus warneri [35]): 7.5; Drug uptake (Escherichia coli [36]): Active; Drug uptake (Escherichia coli [37]): 47%; Activity (Staphylococcus warneri [38]): 99.9%
2 | C[n+]1ccc(-c2c3nc(c(-c4cc[n+](C)cc4)c4ccc([nH]4)c(-c4cc[n+](C)cc4)c4ccc([nH]4)c(-c4cc[n+](C)cc4)c4nc2C=C4)C=C3)cc1 | – | – | – | – | – | – | – | – | – | – | – | – | inactive | – | – | – | – | – | – | – | Activity (Escherichia coli [39]): Active; Activity (Escherichia coli [40]): Active; Activity (Escherichia coli [31]): tde; Activity (Escherichia coli [33]): inactive; Activity (Escherichia coli [34]): Active; Activity (Staphylococcus warneri [41]): inactive; Activity (Staphylococcus warneri [42]): Active
3 | C[n+]1ccc(-c2c3nc(c(-c4cc[n+](C)cc4)c4ccc([nH]4)c(-c4cc[n+](C)cc4)c4nc(c(-c5cc[n+](C)cc5)c5ccc2[nH]5)C=C4)C=C3)cc1.[I-].[I-].[I-].[I-] | 81.2% | Active | 14.3% | 6.2 | 37.9% | 2.8 | 45.3% | 99.9% | 38.3% | 99.8% | 99.8% | 5.7 | – | 4.7 | 99.8% | 3.3 | 0.2 | 19.6% | 1.8 | 47% | Activity (Staphylococcus warneri [24]): 38.1%; log10CFU/ml (Escherichia coli [25]): 2.9; log10CFU/ml (Staphylococcus warneri [26]): 0.4; Activity (Staphylococcus warneri [28]): 58.2%; log10CFU/ml (Escherichia coli [29]): 4.4; log10CFU/ml (Escherichia coli [30]): 6.1; Activity (Escherichia coli [32]): 42.8%; log10CFU/ml (Staphylococcus warneri [35]): 5.6; Drug uptake (Escherichia coli [36]): Active; Drug uptake (Escherichia coli [37]): 35%; Activity (Staphylococcus warneri [38]): 99.9%
